Laboratory results: patent US11242344B2, “(4-hydroxypyrrolidin-2-yl)-heterocyclic compounds and methods of use thereof” (Genentech, Inc., priority 2017, dated 2022)

Key:
VHL Elongin B/C complex = VHL Elongin B/C complex (Homo sapiens (Human), UniProt P40337); experiment: Fluorescence Polarization (FP) VHL Binding Assay; conditions: VHL binding, FP assay; geometric mean where more than one measurement
Protocol: The binding of test compounds to the VHL Elongin B/C complex was measured using a fluorescence polarization tracer competition assay. The VHL/Elongin B/C protein complex used in the assay was generated as follows. The coding region for amino acids E55-D213 of human VHL with N-terminal His6 tag with a TEV-protease cleavage site was co-expressed with Elongin B (residues M1-Q118) and Elongin C (Residues M17-C112) in E. coli. […] The purified VHL/Elongin B/C complex was dialyzed into formulation buffer: 20 mM Bis-Tris pH7.0, 150 mM NaCl, 1 mM DTT. A VHL fluorescence polarization probe (prepared in Example 91), consisted of a VHL ligand coupled to carboxytetramethylrhodamine (TAMRA); […] Compounds were prepared as a serial dilution in DMSO at a concentration 25-fold higher than the final desired concentration and acoustically dispensed (400 nl) into a ProxiPlate-384 Plus F, Black 384-shallow well Microplate (Part Number 6008260). DMSO was dispensed into wells designated for “VHL control” (without compound) wells. The “Assay Buffer” consisted of 50 mM Tris pH 8.0, 120 mM NaCl, 0.005% Nonidet P-40, and 1% DMSO (v/v). Assay Buffer containing […] VHL Elongin B/C complex was prepared and 5 μl dispensed using a BioRapTR (Beckman Coulter) into each well of the assay plate. Assay Buffer was also dispensed into “no VHL control” wells using the same method. A “pre-assay” fluorescence measurement was made using an Infinite® M1000 (Tecan) plate reader (Excitation 530 nm, Emission 574 nm, Bandwidth 10 nm). Assay Buffer containing 3.34 nM of the VHL FP probe was prepared in Assay Buffer and 5 μl dispensed into each well of the assay plate using a BioRapTR (Beckman Coulter). The final VHL/Elongin B/C protein concentration is 2.64 nM and the final probe concentration is 1.67 nM. Assay plates were briefly centrifuged and incubated for 1 hour at room temperature. “Post-assay” fluorescence polarization measurements were made as described for the “pre-assay” fluorescence measurement. Fluorescence polarization was calculated for each sample; taking into account the “pre-assay” fluorescence measurements and subtracting the fluorescence signal of the compound/VHL only (“pre-assay”) measurements from the “post-assay” fluorescence polarization measurements, for each plane of polarization. The data were analyzed using Genedata Screener software and normalized to the “no VHL control” and “VHL control” (without compound). IC50 values were calculated using a four parameter curve fit (Robust method).

[1] = biological target: VHL co-expressed with Elongins B and C (Homo sapiens (Human), UniProt P40337); experiment: Surface Plasmon Resonance Assay; type: binding; conditions: SPR measured VHL affinity; geometric mean where more than one measurement
Sequence of VHL co-expressed with Elongins B and C (P40337 whole entry, looked up): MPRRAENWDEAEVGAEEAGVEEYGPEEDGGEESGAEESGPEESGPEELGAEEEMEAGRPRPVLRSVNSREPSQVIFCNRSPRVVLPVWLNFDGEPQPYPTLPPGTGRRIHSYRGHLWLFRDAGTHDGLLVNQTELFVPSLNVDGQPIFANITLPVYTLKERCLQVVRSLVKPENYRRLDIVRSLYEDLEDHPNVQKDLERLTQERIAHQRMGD
Sequence of VHL co-expressed with Elongins B and C (Q15370 whole entry partner, looked up): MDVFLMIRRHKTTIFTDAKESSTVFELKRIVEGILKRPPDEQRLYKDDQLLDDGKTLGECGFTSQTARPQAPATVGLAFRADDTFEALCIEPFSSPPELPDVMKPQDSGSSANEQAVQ
Sequence of VHL co-expressed with Elongins B and C (Q15369 whole entry partner, looked up): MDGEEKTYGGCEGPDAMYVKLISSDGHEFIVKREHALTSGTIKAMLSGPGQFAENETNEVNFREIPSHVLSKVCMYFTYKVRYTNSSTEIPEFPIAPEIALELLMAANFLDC
Protocol: Using a Biacore T200, […] tagged VHL co-expressed with Elongins B and C were immobilized to a Biacore SA chip in running buffer without DMSO. Compounds were tested individually at varying concentrations in running buffer (50 mM HEPES pH 7.2, 150 mM NaCl, 0.5 mM TCEP, 0.001% Tween 20, 0.2% PEG3350, 2% DMSO) at 20° C. Sensorgrams were run in order from low to high concentration using a flow rate of 80 μL/min. Association and disassociation times were varied depending on the estimated potency of the compound tested. […] Galdeano et al, J. Med. Chem. 2014, 57, 8657-8663, herein incorporated by reference) which retained greater than 75% of the activity over the course of the run. Analysis of the binding curves and determination of the kinetic parameters were done using evaluation software (Version 2.0, Biacore).

[2] = biological target: NanoLuc VHL fusion protein (Homo sapiens (Human), UniProt P40337); experiment: VHL HEK-293 BRET Assay (NanoBRET Target Engagement); type: cell-based; conditions: geometric mean where more than one measurement
Sequence of NanoLuc VHL fusion protein (P40337 whole entry, looked up, the tested form may be a part): as the sequence (P40337 whole entry, looked up) above
Sequence of NanoLuc VHL fusion protein (Q15370 whole entry partner, looked up, the tested form may be a part): as the sequence (Q15370 whole entry partner, looked up) above
Sequence of NanoLuc VHL fusion protein (Q15369 whole entry partner, looked up, the tested form may be a part): as the sequence (Q15369 whole entry partner, looked up) above
Protocol: The VHL NanoBRET™ Target Engagement Assay analyzes the apparent affinity of test compounds for VHL in cells by competitive displacement of a VHL NanoBRET™ tracer reversibly bound to a NanoLuc® VHL fusion protein stably expressed in the cells. Test compounds were transferred to the assay plate (384 Well White Non-Binding Corning Assay Plates (Corning-3574)) using an Echo 555 Liquid Handler (Labcyte) in 2.5 nL increments and, as appropriate, intermediate stock concentrations of compounds, in order to prepare a titration series. 50 nL of control compound (10 mM; parental unlabeled VHL antagonist; see structure below) and 50 nL of DMSO (negative control) were dispensed into the appropriate control wells. DMSO was backfilled to a final volume of 50 nL as required. 50 nl per well of 1 mM VHL NanoBRET™ Tracer in DMSO (NanoBRET™ Tracer-PEG2-590 (see structure below)) was transferred into each well using an Echo 555 (ultimately yielding a final concentration of 1 uM). HEK 293 RT VHL-NanoLuc® stable cells were cultured in DMEM High Glucose with Pyruvate, 10% fetal bovine serum, 2 mg/mL of Geneticin Selective Antibiotic (50 mg/ml) and 2 mM HEPES (1 M). Cells were seeded in Opti-MEM (Life Technologies-11058-021), 1.7×10^5 cells/mL, 40 μl per well into the assay plate, centrifuged at 500 rpm for 30 seconds and incubated for 2 hours. Max Signal control wells consisted of DMSO only treated wells. Minimum Signal control wells contained of 10 uM parental unlabeled VHL antagonist (control compound—see structure below). 3× Complete Substrate plus Inhibitor Solution was prepared in Opti-MEM (consists of a 1:166 dilution of NanoBRET™ Nano-Glo® Substrate plus a 1:500 dilution of Extracellular NanoLuc® Inhibitor in Opti-MEM), and 20 ul was dispensed into each well of the 384-well plate and centrifuged at 1000 rpm for 1 minute, then incubated for 2 minutes at room temperature. Background Signal control wells were prepared without tracer for background correction steps. Plates were read using a PerkinElmer Envision Reader (model 2104-0020) equipped with Luminescence option (Mirror: BRET2 Enh (PE Barcode 659), Emission Filter: Omega 610LP (Barcode 504), 2nd Emission Filter: Umbelliferone 460 (Barcode 207), Measurement height: 6.5 mm, Measurement time: 1 s). The raw BRET ratio values were calculated by dividing the acceptor emission value (610 nm) by the donor emission value (460 nm) for each sample. To correct for background, the BRET ratio in the absence of tracer (average of no-tracer control samples) was subtracted from the BRET ratio of each sample. Raw BRET units were converted to milliBRET units (mBU) by multiplying each raw BRET value by 1,000. The normalized NanoBRET™ signal was calculated relative to the Max Signal control wells (DMSO treated control wells) and the Minimum Signal control wells. Percentage inhibition was calculated relative to the Minimum Signal control and Maximum Signal control wells. IC50 values were derived by four parameter curve fitting using the Robust method.

Sequence of VHL Elongin B/C complex (P40337 whole entry, looked up, the tested form may be a part): as the sequence (P40337 whole entry, looked up) above
Sequence of VHL Elongin B/C complex (Q15370 whole entry partner, looked up, the tested form may be a part): as the sequence (Q15370 whole entry partner, looked up) above
Sequence of VHL Elongin B/C complex (Q15369 whole entry partner, looked up, the tested form may be a part): as the sequence (Q15369 whole entry partner, looked up) above

SMILES | IC50 (VHL Elongin B/C complex) [µM] | Kd [1] [µM] | IC50 [2] [µM]
Cc1cc([C@@H](C(=O)N2C[C@H](O)CC2C2=NOC3(CCCc4ccccc43)N2)C(C)C)on1 (single isomer, unassigned) [Example 131.1] | 160 | – | 100
Cc1cc([C@@H](C(=O)N2C[C@H](O)CC2C2=NOC3(CCCc4ccccc43)N2)C(C)C)on1 (single isomer, unassigned) [Example 131.2] | 242 | – | 100
Cc1cc([C@H](C(=O)N2C[C@H](O)CC2C2=NOC3(CCCc4ccccc43)N2)C(C)C)on1 (single isomer, unassigned) [Example 131.3] | 19.6 | – | 23
Cc1cc([C@H](C(=O)N2C[C@H](O)CC2C2=NOC3(CCCc4ccccc43)N2)C(C)C)on1 (single isomer, unassigned) [Example 131.4] | 19.9 | – | 20
Cc1cc(C(C(=O)N2C[C@H](O)CC2C2=NS(=O)(=O)CN2)C(C)C)on1 (single isomer, unassigned) [Example 137.1] | ≥ 400 | – | ≥ 100
Cc1cc(C(C(=O)N2C[C@H](O)CC2C2=NS(=O)(=O)CN2)C(C)C)on1 (single isomer, unassigned) [Example 137.2] | 47.3 | – | ≥ 100
Cc1cc(C(C(=O)N2C[C@H](O)CC2C2=NS(=O)(=O)CN2)C(C)C)on1 (single isomer, unassigned) [Example 137.3] | ≥ 400 | – | ≥ 100
C#Cc1cccc(Nc2ncnc3cc(OCCOC)c(OCCOCC#CC#CCOc4cc(C(C(=O)N5C[C@H](O)CC5C5=NC(=O)[C@](C)(c6ccc(-c7scnc7C)cc6)N5)C(C)C)on4)cc23)c1 (single isomer, unassigned) [Example 1004.1] | 6.25 | – | 68.3
C#Cc1cccc(Nc2ncnc3cc(OCCOC)c(OCCOCC#CC#CCOc4cc(C(C(=O)N5C[C@H](O)CC5C5=NC(=O)[C@](C)(c6ccc(-c7scnc7C)cc6)N5)C(C)C)on4)cc23)c1 (single isomer, unassigned) [Example 1004.2] | 75.8 | – | 46.4
C#Cc1cccc(Nc2ncnc3cc(OCCOC)c(OCCOCC#CC#CCOc4cc(C(C(=O)N5C[C@H](O)CC5C5=NC(=O)[C@](C)(c6ccc(-c7scnc7C)cc6)N5)C(C)C)on4)cc23)c1 (single isomer, unassigned) [Example 1004.3] | 75.8 | – | ≥ 100
C#Cc1cccc(Nc2ncnc3cc(OCCOC)c(OCCOCC#CC#CCOc4cc(C(C(=O)N5C[C@H](O)CC5C5=NC(=O)[C@](C)(c6ccc(-c7scnc7C)cc6)N5)C(C)C)on4)cc23)c1 (single isomer, unassigned) [Example 1004.4] | 6.25 | – | ≥ 100

Results, then the compound that gave them:

IC50 (VHL Elongin B/C complex) [µM] | Kd [1] [µM] | IC50 [2] [µM] | SMILES
2.96 | 0.895 | – | Cc1cc(C(C(=O)N2C[C@H](O)CC2C2=NC(=O)C(C)(c3ccc(-c4cccnc4C)cc3)N2)C(C)C)on1 (single isomer, unassigned) [Example 106.4]
24.1 | 14.9 | – | Cc1cc(C(C(=O)N2C[C@H](O)CC2C2=NC(=O)C(C)(C)N2)C(C)C)on1 (single isomer, unassigned) [Example 107.2]
> 50 | > 150 | – | Cc1cc(C(C(=O)N2C[C@H](O)CC2C2=NC(=O)C(C)(C)N2)C(C)C)on1 (single isomer, unassigned) [Example 107.3]
> 50 | > 150 | – | Cc1cc(C(C(=O)N2C[C@H](O)CC2C2=NC(=O)C(C)(C)N2)C(C)C)on1 (single isomer, unassigned) [Example 107.4]
57.5 | 13.9 | – | Cc1cc(C(C(=O)N2C[C@H](O)CC2C2=NC(=O)C(C)(c3ccc(-c4cccc(=O)n4C)cc3)N2)C(C)C)on1 (single isomer, unassigned) [Example 108.1]
11 | 3.95 | – | Cc1cc(C(C(=O)N2C[C@H](O)CC2C2=NC(=O)C(C)(c3ccc(-c4cccc(=O)n4C)cc3)N2)C(C)C)on1 (single isomer, unassigned) [Example 108.2]
> 400 | > 0.3 | – | Cc1cc(C(C(=O)N2C[C@H](O)CC2C2=NC(=O)C(C)(c3ccc(-c4cccc(=O)n4C)cc3)N2)C(C)C)on1 (single isomer, unassigned) [Example 108.3]
> 400 | > 0.3 | – | Cc1cc(C(C(=O)N2C[C@H](O)CC2C2=NC(=O)C(C)(c3ccc(-c4cccc(=O)n4C)cc3)N2)C(C)C)on1 (single isomer, unassigned) [Example 108.4]
≥ 400 | ≥ 150 | – | Cc1cc([C@@H](C(=O)N2C[C@H](O)C[C@H]2C2=NOC(c3ccc(Br)cc3)(C(F)(F)F)N2)C(C)C)on1 (single isomer, unassigned) [Example 133.2]
10 | – | 21.7 | Cc1cc(C(C(=O)N2C[C@H](O)C[C@H]2C2=NO[C@](C)(c3ccc(-c4ccccc4F)cc3)N2)C(C)C)on1 (single isomer, unassigned) [Example 139.1]
0.0628 | – | 0.0678 | Cc1cc(C(C(=O)N2C[C@H](O)C[C@H]2C2=NO[C@](C)(c3ccc(-c4ccccc4F)cc3)N2)C(C)C)on1 (single isomer, unassigned) [Example 139.2]
